Here are results for 5 molecules from ChEMBL document CHEMBL1136797, “Fumagalone, a reversible inhibitor of type 2 methionine aminopeptidase and angiogenesis” (J Med Chem, 2003).

Test [1] in a line: Inhibition of indothelial cell ploriferation determined in bovine aortic endothelial cell (BAEC). It counts as functional, cell-based, Bos taurus.
Test [2] concerns Endothelial cell. In words: Inhibition of endothelial cell ploriferation determined in bovine aortic endothelial cell (BAEC); Inactive. It counts as functional, cell-based. Conditions: Bos taurus.
Test [3] deals with Endothelial cell. In words: Inhibition of indothelial cell ploriferation determined in bovine aortic endothelial cell (BAEC); Inactive. The test is classed as functional, cell-based. Conditions: Bos taurus.
A short description of test [4]: Inhibition of endothelial cell ploriferation determined in bovine aortic endothelial cell (BAEC). It counts as functional, cell-based, Bos taurus.
The target of test [5] is T1, Methionine aminopeptidase 2 (Homo sapiens, UniProt P50579). In words: In vitro inhibitory activity against purified recombinant human Methionine Aminopeptidase 2 (MetAP2).
Target sequence in this assay (P50579 whole entry): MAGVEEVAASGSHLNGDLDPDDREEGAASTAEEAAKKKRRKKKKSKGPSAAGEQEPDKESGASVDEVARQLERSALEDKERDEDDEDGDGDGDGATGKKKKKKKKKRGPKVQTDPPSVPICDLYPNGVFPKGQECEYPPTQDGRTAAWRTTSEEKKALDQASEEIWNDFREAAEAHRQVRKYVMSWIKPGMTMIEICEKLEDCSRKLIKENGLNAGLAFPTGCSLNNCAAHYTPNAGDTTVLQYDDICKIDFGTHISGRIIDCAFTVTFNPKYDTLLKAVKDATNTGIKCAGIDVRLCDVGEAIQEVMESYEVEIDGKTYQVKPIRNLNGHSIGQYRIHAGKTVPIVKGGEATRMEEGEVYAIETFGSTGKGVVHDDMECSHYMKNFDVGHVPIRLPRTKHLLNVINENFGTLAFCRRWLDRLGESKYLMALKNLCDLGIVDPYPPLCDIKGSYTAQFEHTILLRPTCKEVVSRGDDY
In test [6] the target is T1, Methionine aminopeptidase 2.
Target sequence in this assay (P50579 2-478 limits assumed): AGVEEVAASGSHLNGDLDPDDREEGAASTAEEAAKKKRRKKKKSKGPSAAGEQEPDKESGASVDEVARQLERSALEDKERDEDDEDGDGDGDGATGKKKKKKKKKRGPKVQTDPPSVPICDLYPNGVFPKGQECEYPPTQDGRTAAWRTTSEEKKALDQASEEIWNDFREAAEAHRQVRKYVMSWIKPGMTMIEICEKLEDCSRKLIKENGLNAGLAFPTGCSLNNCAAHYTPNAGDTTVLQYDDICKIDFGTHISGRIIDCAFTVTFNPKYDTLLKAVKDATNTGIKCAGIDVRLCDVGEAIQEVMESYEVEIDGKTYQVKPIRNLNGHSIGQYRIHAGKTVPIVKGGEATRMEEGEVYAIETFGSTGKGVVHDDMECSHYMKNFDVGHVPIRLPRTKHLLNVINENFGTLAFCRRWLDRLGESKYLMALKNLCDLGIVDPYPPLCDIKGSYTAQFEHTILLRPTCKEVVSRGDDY

Molecules are shown by their SMILES. The source made the active and inactive calls. No cut-off for these calls is given here.

As to `CO[C@@H]1C(=O)CC[C@](O)(C=O)[C@H]1[C@@]1(C)O[C@H]1CC=C(C)C`, the half-maximal inhibitory concentration (IC50) in test [1] came out at 52 nM.

Regarding `CO[C@H]1[C@H]([C@@]2(C)O[C@H]2CC=C(C)C)[C@@](O)(C=O)CC[C@@H]1O`, the NA entry in test [2] is “inactive”.

On to `CO[C@@H]1[C@H](O)CC[C@](O)(C=O)[C@H]1[C@@]1(C)O[C@@H]1CC=C(C)C`, for which the NA entry in test [3] was “inactive”.

In the case of `CO[C@@H]1[C@H](OC(=O)/C=C/C=C/C=C/C=C/C(=O)O)CC[C@]2(CO2)[C@H]1[C@@]1(C)O[C@@H]1CC=C(C)C` [FUMAGILLIN], the values for the IC50 in test [4] and in test [5] were 200 nM and 1 nM, respectively.

With `CO[C@@H]1C(=O)CC[C@](O)(C[S+]([O-])c2ccccc2)[C@H]1[C@@]1(C)O[C@@H]1CC=C(C)C` (some centres not stated), the NA result in test [3] and in test [6] was “inactive” in each case.
